In one experiment the target is PI3Kβ (Homo sapiens, UniProt P42338). The experiment in a line: In vitro enzyme inhibition assay (Kinase Glo), PI3Kβ. It counts as biochemical. The procedure:
(§1) (a) In Vitro Enzyme Inhibition Assay
(§2) The inhibition of PI3Kβ, PI3Kα, PI3Kγ and PI3Kδ was evaluated in a Kinase Glo based enzyme activity assay using human recombinant enzymes. The assay measures depletion of ATP after incubation with enzyme, PIP2 and ATP plus compound. ATP at the end of the reaction is detected by addition of Kinase Glo reagent, in this the Ultra Glo™ luciferase (Promega) uses the ATP as a substrate to catalyze the mono-oxygenation of luciferin and the generation of light. A direct relationship exists between the luminescence measured with the Kinase-Glo Plus Reagent and the amount of ATP remaining in a completed kinase reaction and luminescence is inversely related to kinase activity. Twelve different compound concentrations were tested and raw data from the inhibition of PI3Kβ, PI3Kα, PI3Kγ and PI3Kδ was plotted versus inhibitor concentration.
(§3) Compounds in 100% DMSO were added to assay plates by acoustic dispensing. PI3β was added in a Tris buffer (50 mM Tris pH7.4, 0.05% CHAPS, 2.1 mM DTT, and 10 mM MgCl2) and allowed to preincubate with compound for 20 min prior to addition of substrate solution containing PIP2 and ATP. The enzyme reaction was stopped after 80 min by the addition of Kinase Glo detection solution. […] The final concentration of DMSO, ATP and PIP2 in the assay were, 1%, 8 μM, and 80 μM respectively.
(§4) IC50 values were calculated using a log curve fitting to a non-linear regression package, fitting raw data to inhibitor concentration.
For orientation: In Kinase-Glo more light means more ATP remaining.

Experiment [1] has as its system phospho AKT (ser473) in MDA-MB-468 cells. The experiment in a line: Detection of phospho AKT (ser473) in MDA-MB-468 cells. It counts as cell-based. The note with it: Homo sapiens, Test (b), 2 hours incubation, approximate value, read-out: IC50 versus cellular phospho AKT (ser473) in MDA-MB-468 cells. The procedure:
(b) Protocol for Detection of Phospho AKT (ser473) in MDA-MB-468 Cells
MDA-MB-468 cells (human breast adenocarcinoma ATCC HTB 132) are seeded into Greiner 384 well black flat-bottomed plates by automated cell culture robot (Selec T). Cells can also be maintained manually and seeded into plates using multidrop or Wellmate. Cells seeded at 1500 cell/well in 40 μl of DMEN containing 10% FCS and 1% glutamine. Cell plates are incubated for 18 hours in a 37° C. incubator.
Compounds are dosed onto cells using an Echo acoustic dispenser, which dispenses nl quantities of compound or DMSO. Compounds are dosed in a 12 point concentration range from 30 μM top dose, 28 compounds are dosed on one plate. There are 17 DMSO only positive control wells per plate, and 16 negative control well which have been dosed with a concentration of reference compound that will knockout the pAKT signal.
Plates are incubated at 37° C. for 2 hours, cells are the fixed by the addition of 10 μl of a 3.7% Formaldehyde solution in a fume cupboard using a Wellmate.
After 30 min to allow for fixation, the fixative and media are removed and the plates washed with Proclin PBS/A using Tecan PW384 plate washer in a fume cupboard. Wells are blocked and permeabilised with the addition of 40 μl of PBS containing 0.5% Tween20 and 1% marvel using a Wellmate and incubated for 60 min at room temperature.
Permeabilisation and blocking buffer removed using Tecan PW384 plate washer, then 20 μl primary antibody solution added using a Wellmate. The primary antibody solution is a 1:500 dilution of Rabbit anti-phospho AKT Ser 473 (Cell signalling technologies catalogue number #3787) in PBS/T containing 1% marvel (dried milk powder) and incubated overnight at 4° C.
Plates are washed using a Tecan PW384 plate washer three times with Phosphate Buffered Saline+0.05% (v/v) Polysorbate20 and Proclin300 (Supelco). 20 μl of secondary antibody solution is then added to each well using a Wellmate and incubated for 1 hour at Room Temp. The secondary antibody solution is a 1:1000 dilution of Alexa Fluor 488 anti-Rabbit (Molecular Probes cat no A11008) diluted in Phosphate Buffered Saline+0.05% (v/v) Polysorbate20 containing 1% marvel. Plates are washed three times as before then […] added to each well and plates sealed with black plate sealer.
The plates are read on an Acumen reader as soon as possible. Using this system IC50 values can be generated and quality of plates determined by control wells. Reference compounds are run each time to monitor assay performance.

The next experiment deals with PI3Kδ (Homo sapiens, UniProt O00329). The experiment in a line: In vitro enzyme inhibition assay (Kinase Glo), PI3Kδ. The note with it: Test (a). Format: biochemical. The procedure: as §1, §2, §3, §4
PI3Kδ, sequence (O00329 whole entry): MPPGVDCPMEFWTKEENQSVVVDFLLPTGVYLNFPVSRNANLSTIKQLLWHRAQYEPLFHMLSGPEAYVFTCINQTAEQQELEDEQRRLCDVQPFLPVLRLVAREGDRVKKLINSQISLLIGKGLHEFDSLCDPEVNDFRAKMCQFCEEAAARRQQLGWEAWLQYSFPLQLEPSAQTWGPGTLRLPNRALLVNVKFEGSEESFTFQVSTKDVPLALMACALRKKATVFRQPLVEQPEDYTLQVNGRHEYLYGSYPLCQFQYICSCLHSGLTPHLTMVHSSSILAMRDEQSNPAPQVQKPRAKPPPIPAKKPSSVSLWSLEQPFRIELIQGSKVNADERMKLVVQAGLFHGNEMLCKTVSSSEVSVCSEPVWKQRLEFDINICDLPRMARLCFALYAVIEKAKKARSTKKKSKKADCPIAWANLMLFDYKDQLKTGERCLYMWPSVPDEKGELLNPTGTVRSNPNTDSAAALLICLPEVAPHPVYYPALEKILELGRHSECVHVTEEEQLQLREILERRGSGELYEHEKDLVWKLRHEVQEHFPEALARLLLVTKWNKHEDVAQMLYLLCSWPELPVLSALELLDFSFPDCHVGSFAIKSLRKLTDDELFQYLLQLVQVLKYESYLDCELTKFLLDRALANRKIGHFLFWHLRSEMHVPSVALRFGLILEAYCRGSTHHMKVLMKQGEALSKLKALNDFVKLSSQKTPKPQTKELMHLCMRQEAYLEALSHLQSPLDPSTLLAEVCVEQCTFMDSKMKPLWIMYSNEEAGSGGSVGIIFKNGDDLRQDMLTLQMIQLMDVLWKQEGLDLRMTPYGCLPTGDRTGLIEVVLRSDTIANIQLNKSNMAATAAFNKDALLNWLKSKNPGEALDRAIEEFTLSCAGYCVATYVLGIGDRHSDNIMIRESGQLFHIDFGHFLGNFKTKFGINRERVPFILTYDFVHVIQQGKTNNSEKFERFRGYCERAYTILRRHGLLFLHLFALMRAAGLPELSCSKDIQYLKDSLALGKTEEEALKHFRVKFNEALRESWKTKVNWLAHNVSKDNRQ
PI3Kδ, sequence (P27986 whole entry partner): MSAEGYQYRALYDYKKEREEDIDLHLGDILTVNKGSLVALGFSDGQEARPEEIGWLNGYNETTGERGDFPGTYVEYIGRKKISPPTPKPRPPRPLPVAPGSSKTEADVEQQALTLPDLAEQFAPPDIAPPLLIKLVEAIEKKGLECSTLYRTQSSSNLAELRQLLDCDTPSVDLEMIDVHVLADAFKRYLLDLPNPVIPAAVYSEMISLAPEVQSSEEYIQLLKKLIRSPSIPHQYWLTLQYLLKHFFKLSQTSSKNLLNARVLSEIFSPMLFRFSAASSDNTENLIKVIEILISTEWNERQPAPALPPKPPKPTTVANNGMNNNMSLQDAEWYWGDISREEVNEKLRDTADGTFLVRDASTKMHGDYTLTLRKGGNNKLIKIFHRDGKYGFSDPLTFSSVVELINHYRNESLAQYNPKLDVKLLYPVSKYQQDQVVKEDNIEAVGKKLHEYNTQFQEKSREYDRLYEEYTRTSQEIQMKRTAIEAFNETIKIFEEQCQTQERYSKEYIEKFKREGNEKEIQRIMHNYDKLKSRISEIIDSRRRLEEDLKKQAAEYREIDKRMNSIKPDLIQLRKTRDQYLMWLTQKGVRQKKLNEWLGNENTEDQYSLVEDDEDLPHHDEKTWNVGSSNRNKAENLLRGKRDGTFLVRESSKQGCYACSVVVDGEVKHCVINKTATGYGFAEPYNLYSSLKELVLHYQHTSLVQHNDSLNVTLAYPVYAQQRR
Where [2] appears, read: Test (a), approximate value, read-out: IC50 versus PI3Kβ.
Setting [3] is: Test (a), human recombinant enzyme, ATP 8 μM, PIP2 80 μM, Table A, read-out: PI3Kβ inhibition, IC50.
Setting [4] is: approximate value, read-out: IC50 versus PI3Kδ.
Setting [5] is: human recombinant enzyme, Table A, read-out: PI3Kδ inhibition, IC50.

Like-named read-outs stand apart in the source and are kept apart here.

PI3Kβ, sequence (P42338 whole entry): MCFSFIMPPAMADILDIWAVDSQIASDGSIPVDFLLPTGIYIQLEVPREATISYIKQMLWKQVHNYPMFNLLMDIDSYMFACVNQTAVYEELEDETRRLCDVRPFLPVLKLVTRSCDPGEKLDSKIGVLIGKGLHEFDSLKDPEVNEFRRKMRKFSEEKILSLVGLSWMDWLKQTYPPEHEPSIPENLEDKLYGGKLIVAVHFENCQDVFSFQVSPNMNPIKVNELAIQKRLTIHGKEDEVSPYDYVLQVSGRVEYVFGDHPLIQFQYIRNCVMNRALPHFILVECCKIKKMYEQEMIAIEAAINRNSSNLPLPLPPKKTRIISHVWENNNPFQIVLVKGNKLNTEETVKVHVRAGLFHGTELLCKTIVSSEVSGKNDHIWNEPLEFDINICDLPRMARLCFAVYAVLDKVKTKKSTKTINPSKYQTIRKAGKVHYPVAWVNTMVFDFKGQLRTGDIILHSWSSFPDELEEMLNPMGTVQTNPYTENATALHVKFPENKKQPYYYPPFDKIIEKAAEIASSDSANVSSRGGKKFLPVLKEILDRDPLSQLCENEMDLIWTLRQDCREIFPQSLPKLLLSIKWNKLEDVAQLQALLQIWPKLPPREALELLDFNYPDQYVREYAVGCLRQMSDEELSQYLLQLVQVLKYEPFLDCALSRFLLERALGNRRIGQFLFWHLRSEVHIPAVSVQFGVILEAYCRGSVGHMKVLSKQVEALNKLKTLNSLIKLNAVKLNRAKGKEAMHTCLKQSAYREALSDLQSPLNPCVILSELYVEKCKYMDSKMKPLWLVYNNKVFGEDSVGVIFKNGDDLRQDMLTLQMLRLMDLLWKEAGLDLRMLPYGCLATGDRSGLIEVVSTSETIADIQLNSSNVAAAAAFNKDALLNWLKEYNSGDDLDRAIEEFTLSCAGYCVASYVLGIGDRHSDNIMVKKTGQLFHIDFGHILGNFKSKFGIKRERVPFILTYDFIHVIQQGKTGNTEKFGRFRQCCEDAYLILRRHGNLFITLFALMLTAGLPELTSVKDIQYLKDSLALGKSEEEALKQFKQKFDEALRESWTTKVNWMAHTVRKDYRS
PI3Kβ, sequence (P27986 whole entry partner): as the sequence (P27986 whole entry partner) above

By IC50 is commonly meant the concentration at which inhibition is half-maximal. In the case of `O=C(c1cc(C2CCCN2c2cc(F)cc(F)c2)c2oc(N3CCOCC3)cc(=O)c2c1)N1CCOCC1` (racemic) [Example 1.03, 8-(1-(3,5-difluorophenyl)pyrrolidin-2-yl)-6-(morpholine-4-carbonyl)-2-morpholino-4H-chromen-4-one], the IC50 is roughly 12 nM at PI3Kβ (setting [2]); 12 nM at PI3Kβ (setting [3]); roughly 2 nM in experiment [1]; roughly 22 nM on PI3Kδ (setting [4]); 22 nM on PI3Kδ (setting [5]).

For the molecule `O=C(c1cc(C2CCCN2c2ccc(F)cc2)c2oc(N3CCOCC3)cc(=O)c2c1)N1CCOCC1` (racemic) [Example 1.12, 8-(1-(4-fluorophenyl)pyrrolidin-2-yl)-6-(morpholine-4-carbonyl)-2-morpholino-4H-chromen-4-one], the IC50 on PI3Kβ (setting [3]) came to 15 nM; on PI3Kδ (setting [5]), 32 nM.

As to `CN(C)C(=O)c1cc(C2CCCN2c2ccc(F)cc2)c2oc(N3CCOCC3)cc(=O)c2c1` (racemic) [Example 2.04, 8-(1-(4-fluorophenyl)pyrrolidin-2-yl)-N,N-dimethyl-2-morpholino-4-oxo-4H-chromene-6-carboxamide], the IC50 at PI3Kβ (setting [3]) came to 17 nM; on PI3Kδ (setting [5]), 19 nM.

With `CN(C)C(=O)c1cc(C2CCCN2c2cc(F)cc(F)c2)c2oc(N3CCOCC3)cc(=O)c2c1` (stereo not drawn) [Example 1.00, 8-[1-(3,5-difluorophenyl)pyrrolidin-2-yl]-N,N-dimethyl-2-morpholino-4-oxo-4H-chromene-6-carboxamide], the IC50 at PI3Kδ (setting [5]) is 15 nM.

In the case of `CN(CCO)C(=O)c1cc(C2CCCN2c2cc(F)cc(F)c2)c2oc(N3CCOCC3)cc(=O)c2c1` (stereo not drawn) [Example 1.01, 8-(1-(3,5-difluorophenyl)pyrrolidin-2-yl)-N-(2-hydroxyethyl)-N-methyl-2-morpholino-4-oxo-4H-chromene-6-carboxamide], the IC50 at PI3Kδ (setting [5]) was 16 nM.

Regarding `O=C(c1cc(C2CCCN2c2cc(F)cc(F)c2)c2oc(N3CCOCC3)cc(=O)c2c1)N1CCC(O)CC1` (stereo not drawn) [Example 1.02, 8-(1-(3,5-difluorophenyl)pyrrolidin-2-yl)-6-(4-hydroxypiperidine-1-carbonyl)-2-morpholino-4H-chromen-4-one], the IC50 at PI3Kδ (setting [5]) was determined as 14 nM.

As for `O=C(c1cc(C2CCCN2c2cc(F)cc(F)c2)c2oc(N3CCOCC3)cc(=O)c2c1)N1CC[S+]([O-])CC1` (stereo not drawn) [Example 1.04, 8-[1-(3,5-difluorophenyl)pyrrolidin-2-yl]-2-morpholino-6-[(1-oxidothiomorpholin-4-yl)carbonyl]-4H-chromen-4-one], the IC50 at PI3Kβ (setting [2]) is roughly 11 nM; on PI3Kβ (setting [3]), 11 nM; in experiment [1], roughly 5 nM; at PI3Kδ (setting [4]), roughly 24 nM; at PI3Kδ (setting [5]), 24 nM.

On to `O=C(c1cc([C@H]2CCCN2c2cc(F)cc(F)c2)c2oc(N3CCOCC3)cc(=O)c2c1)N1CCC1` [Example 1.05, 6-(azetidine-1-carbonyl)-8-[(2R)-(1-(3,5-difluorophenyl)pyrrolidin-2-yl)]-2-morpholino-4H-chromen-4-one], for which the IC50 is roughly 7 nM at PI3Kβ (setting [2]); 7 nM at PI3Kβ (setting [3]); roughly 1 nM in experiment [1]; roughly 9 nM at PI3Kδ (setting [4]); 9 nM on PI3Kδ (setting [5]).

For `CN(C)C(=O)c1cc([C@H]2CCCN2c2cccc(F)c2)c2oc(N3CCOCC3)cc(=O)c2c1` [Example 1.06, 8-[(2R)-(1-(3-fluorophenyl)pyrrolidin-2-yl)]-N,N-dimethyl-2-morpholino-4-oxo-4H-chromene-6-carboxamide], the half-maximal inhibitory concentration (IC50) at PI3Kβ (setting [2]) is roughly 7 nM; on PI3Kβ (setting [3]) it was 7 nM; in experiment [1] it was roughly 1 nM; at PI3Kδ (setting [4]), roughly 7 nM; on PI3Kδ (setting [5]), 7 nM.

For the molecule `O=C(c1cc([C@H]2CCCN2c2cccc(F)c2)c2oc(N3CCOCC3)cc(=O)c2c1)N1CCOCC1` [Example 1.07, 8-[(2R)-(1-(3-fluorophenyl)pyrrolidin-2-yl)]-6-(morpholine-4-carbonyl)-2-morpholino-4H-chromen-4-one], the IC50 at PI3Kβ (IC50 versus PI3Kβ) is roughly 6 nM; on PI3Kβ (setting [3]), 6 nM; in experiment [1], roughly 2 nM; on PI3Kδ (setting [4]), roughly 5 nM; on PI3Kδ (setting [5]), 5 nM.

As for `O=C(c1cc([C@H]2CCCN2c2cccc(F)c2)c2oc(N3CCOCC3)cc(=O)c2c1)N1CCC1` [Example 1.08, 6-(azetidine-1-carbonyl)-8-[(2R)-(1-(3-fluorophenyl)pyrrolidin-2-yl)]-2-morpholino-4H-chromen-4-one], the IC50 at PI3Kβ (setting [2]) is roughly 6 nM; on PI3Kβ (setting [3]), 6 nM; in experiment [1], roughly 2 nM; at PI3Kδ (setting [4]) it was roughly 6 nM; at PI3Kδ (setting [5]), 6 nM.

On to `CN1CCN(C(=O)c2cc([C@H]3CCCN3c3cc(F)cc(F)c3)c3oc(N4CCOCC4)cc(=O)c3c2)CC1` [Example 1.09, 8-[(2R)-(1-(3,5-difluorophenyl)pyrrolidin-2-yl)]-6-(4-methylpiperazine-1-carbonyl)-2-morpholino-4H-chromen-4-one], for which the IC50 at PI3Kδ (setting [5]) was 14 nM.

As to `CN1CCN(C(=O)c2cc([C@H]3CCCN3c3cccc(F)c3)c3oc(N4CCOCC4)cc(=O)c3c2)CC1` [Example 1.10, 8-[(2R)-(1-(3-fluorophenyl)pyrrolidin-2-yl)]-6-(4-methylpiperazine-1-carbonyl)-2-morpholino-4H-chromen-4-one], the IC50 on PI3Kβ (setting [2]) was roughly 8 nM; on PI3Kβ (setting [3]), 8 nM; in experiment [1], roughly 4 nM; on PI3Kδ (setting [4]), roughly 21 nM; on PI3Kδ (setting [5]), 21 nM.

`COc1cccc(N2CCC[C@@H]2c2cc(C(=O)N3CCOCC3)cc3c(=O)cc(N4CCOCC4)oc23)c1` [Example 1.11, 8-[(2R)-(1-(3-methoxyphenyl)pyrrolidin-2-yl)]-6-(morpholine-4-carbonyl)-2-morpholino-4H-chromen-4-one]: the IC50 at PI3Kβ (setting [2]) was roughly 9 nM; at PI3Kβ (setting [3]), 9 nM; in experiment [1] it was roughly 8 nM; at PI3Kδ (setting [4]), roughly 15 nM; on PI3Kδ (setting [5]), 15 nM.

On to `CN(C)C(=O)c1cc(C2CCCN2c2cccc(F)c2)c2oc(N3CCOCC3)cc(=O)c2c1` (stereo not drawn) [Example 2.00, 8-(1-(3-fluorophenyl)pyrrolidin-2-yl)-N,N-dimethyl-2-morpholino-4-oxo-4H-chromene-6-carboxamide], for which the IC50 on PI3Kβ (setting [2]) was roughly 9 nM; on PI3Kβ (read-out: PI3Kβ inhibition, IC50) it was 9 nM; in experiment [1], roughly 2 nM; at PI3Kδ (setting [4]) it was roughly 12 nM; at PI3Kδ (setting [5]), 12 nM.

In the case of `COc1cccc(N2CCCC2c2cc(C(=O)N(C)C)cc3c(=O)cc(N4CCOCC4)oc23)c1` (stereo not drawn) [Example 2.01, 8-(1-(3-methoxyphenyl)pyrrolidin-2-yl)-N,N-dimethyl-2-morpholino-4-oxo-4H-chromene-6-carboxamide], the 50% inhibitory concentration (IC50) is 10 nM at PI3Kβ (setting [3]) and 15 nM on PI3Kδ (setting [5]).

With `CN(C)C(=O)c1cc(C2CCCN2c2cc(F)cc(C#N)c2)c2oc(N3CCOCC3)cc(=O)c2c1` (stereo not drawn) [Example 2.02, 8-(1-(3-cyano-5-fluorophenyl)pyrrolidin-2-yl)-N,N-dimethyl-2-morpholino-4-oxo-4H-chromene-6-carboxamide], the IC50 was 13 nM on PI3Kβ (setting [3]) and 16 nM at PI3Kδ (setting [5]).
